The supplement of paper PMC10307832

Assays:
Assay in all cases: relative viability (nuclei count vs DMSO), 5 days (fraction); higher = more cells survive
JZL-184 + Olaparib = compound: C1CN(CCC1C(C2=CC3=C(C=C2)OCO3)(C4=CC5=C(C=C4)OCO5)O)C(=O)OC6=CC=C(C=C6)[N+](=O)[O-] [JZL-184] + O=C(c1cc(Cc2n[nH]c(=O)c3ccccc23)ccc1F)N1CCN(C(=O)C2CC2)CC1 [Olaparib] (partner 8 µM)
Outline: (§1)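 Relative viability divides the nuclei count in treated wells by that in vehicle wells. Lung cancer cell lines were seeded in 1536-well plates, dosed by pin tool the next day, and fixed and stained after 5 days in one step with final 0.05% Triton X-100, 1% formaldehyde and 1 ug/ml Hoechst. Dosing was a single drug or a fixed anchor-drug dose plus five library-drug doses (not always all listed) in √10 steps, and values are medians of duplicate plates imaged at 4×.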

JZL-184 + Pictilisib = compound: C1CN(CCC1C(C2=CC3=C(C=C2)OCO3)(C4=CC5=C(C=C4)OCO5)O)C(=O)OC6=CC=C(C=C6)[N+](=O)[O-] [JZL-184] + CS(=O)(=O)N1CCN(Cc2cc3nc(-c4cccc5[nH]ncc45)nc(N4CCOCC4)c3s2)CC1 [Pictilisib] (partner 1 µM)
Outline: as §1

JZL-184 + Trametinib = compound: C1CN(CCC1C(C2=CC3=C(C=C2)OCO3)(C4=CC5=C(C=C4)OCO5)O)C(=O)OC6=CC=C(C=C6)[N+](=O)[O-] [JZL-184] + CC(=O)Nc1cccc(-n2c(=O)n(C3CC3)c(=O)c3c(Nc4ccc(I)cc4F)n(C)c(=O)c(C)c32)c1 [Trametinib] (partner 0.02 µM)
Outline: as §1

JZL-184 + Crizotinib = compound: C1CN(CCC1C(C2=CC3=C(C=C2)OCO3)(C4=CC5=C(C=C4)OCO5)O)C(=O)OC6=CC=C(C=C6)[N+](=O)[O-] [JZL-184] + C[C@@H](Oc1cc(-c2cnn(C3CCNCC3)c2)cnc1N)c1c(Cl)ccc(F)c1Cl [Crizotinib] (partner 1 µM)
Outline: as §1

JZL-184 + AZD7762 = compound: C1CN(CCC1C(C2=CC3=C(C=C2)OCO3)(C4=CC5=C(C=C4)OCO5)O)C(=O)OC6=CC=C(C=C6)[N+](=O)[O-] [JZL-184] + NC(=O)Nc1cc(-c2cccc(F)c2)sc1C(=O)N[C@H]1CCCNC1 [AZD7762] (partner 0.2 µM)
Outline: as §1

Row | Cell Line | relative viability (JZL-184 + Olaparib; first compound 0.04 µM) | relative viability (JZL-184 + Olaparib; first compound 0.4 µM) | relative viability (JZL-184 + Olaparib; first compound 1.265 µM) | relative viability (JZL-184 + Olaparib; first compound 4 µM) | relative viability (JZL-184 + Pictilisib; first compound 0.04 µM) | relative viability (JZL-184 + Pictilisib; first compound 0.4 µM) | relative viability (JZL-184 + Pictilisib; first compound 1.265 µM) | relative viability (JZL-184 + Pictilisib; first compound 4 µM) | relative viability (JZL-184 + Trametinib; first compound 0.04 µM) | relative viability (JZL-184 + Trametinib; first compound 0.4 µM) | relative viability (JZL-184 + Trametinib; first compound 1.265 µM) | relative viability (JZL-184 + Trametinib; first compound 4 µM) | relative viability (JZL-184 + Crizotinib; first compound 0.04 µM) | relative viability (JZL-184 + Crizotinib; first compound 0.4 µM) | relative viability (JZL-184 + Crizotinib; first compound 1.265 µM) | relative viability (JZL-184 + Crizotinib; first compound 4 µM) | relative viability (JZL-184 + AZD7762; first compound 0.04 µM) | relative viability (JZL-184 + AZD7762; first compound 0.4 µM) | relative viability (JZL-184 + AZD7762; first compound 1.265 µM) | relative viability (JZL-184 + AZD7762; first compound 4 µM)
1 | EMC-BAC-2 | 0.473 | 0.479 | 0.491 | 0.492 | 0.59 | 0.559 | 0.565 | 0.488 | 0.955 | 0.899 | 0.832 | 0.827 | 0.939 | 0.726 | 0.785 | 0.704 | 1.16 | 1.11 | 1.14 | 1.08
2 | NCI-H661 | 0.825 | 0.712 | 0.731 | 0.748 | 0.372 | – | 0.455 | 0.452 | 0.606 | 0.531 | 0.548 | 0.586 | 0.933 | – | 0.935 | 0.928 | – | – | – | –
3 | LU99A | 0.256 | 0.277 | 0.254 | 0.225 | 0.353 | 0.315 | 0.329 | 0.313 | 0.574 | 0.469 | 0.607 | 0.638 | 0.657 | 0.529 | 0.622 | 0.63 | 0.364 | 0.363 | 0.346 | 0.328
4 | LK-2 | 0.777 | 0.661 | 0.939 | 0.835 | 0.511 | 0.6 | 0.632 | 0.645 | 0.903 | 0.736 | 0.856 | 0.721 | 0.223 | 0.232 | 0.211 | 0.22 | 0.438 | 0.501 | 0.422 | 0.411
5 | NCI-H3122 | 0.571 | 0.55 | 0.667 | 0.598 | 0.678 | 0.602 | 0.59 | 0.581 | 0.211 | 0.168 | 0.242 | 0.242 | 0.27 | 0.237 | 0.282 | 0.323 | 1.05 | 0.866 | 0.99 | 1.02
6 | NCI-H2347 | – | 0.577 | 0.586 | 0.53 | 0.768 | 0.654 | 0.61 | 0.688 | – | 0.313 | 0.275 | 0.283 | 0.968 | 0.835 | 0.694 | 0.72 | – | 0.758 | 0.82 | 0.703
7 | NCI-H1563 | – | – | – | – | 0.673 | 0.676 | 0.669 | 0.675 | – | – | – | – | 0.931 | 0.903 | 0.868 | 0.88 | – | – | – | –
8 | HCC-827 | 0.556 | 0.607 | 0.718 | 0.627 | 0.915 | 0.908 | 1.01 | 1.06 | 0.536 | 0.55 | 0.583 | 0.515 | 0.918 | 0.888 | 0.977 | 0.854 | 0.147 | 0.182 | 0.19 | 0.206
9 | NCI-H1666 | 0.755 | 0.716 | 0.712 | 0.735 | 0.483 | 0.517 | 0.5 | 0.491 | 0.888 | 0.828 | 0.856 | 0.839 | 1.17 | 0.983 | 0.872 | 0.992 | 0.915 | 0.764 | 0.818 | 0.923
10 | NCI-H358 | 0.804 | 0.637 | 0.599 | 0.592 | 0.353 | 0.399 | 0.319 | 0.444 | 0.146 | 0.133 | 0.148 | 0.15 | 0.748 | 0.438 | 0.595 | 0.49 | 0.585 | 0.639 | 0.569 | 0.51
11 | 201T | 0.858 | 0.845 | 0.82 | 0.841 | 0.743 | 0.67 | 0.727 | 0.649 | 0.676 | 0.724 | 0.706 | 0.688 | 1.06 | 1.03 | 1.01 | 1.01 | 0.711 | 0.57 | 0.586 | 0.611
12 | PC-3 [JPC-3] | 1.14 | 1.04 | 1.21 | 1.15 | 0.773 | 0.735 | 0.773 | 0.738 | 0.779 | 0.71 | 0.708 | 0.687 | 1.02 | 1.03 | 1.01 | 0.974 | 0.773 | 0.71 | 0.94 | 0.8
13 | NCI-H2405 | 0.974 | 0.901 | 0.836 | 0.855 | 0.531 | 0.444 | 0.493 | 0.486 | 0.703 | 0.664 | 0.69 | 0.45 | 0.87 | 0.857 | 0.968 | 0.811 | 0.786 | 0.533 | 0.797 | 0.663
14 | LXF-289 | 1.16 | 1.06 | 1.01 | 0.975 | 0.865 | 0.71 | 0.842 | 0.779 | 0.789 | 0.604 | 0.668 | 0.668 | 0.813 | 0.819 | 0.765 | 0.75 | 1.07 | 1.08 | 1.1 | 1.06
15 | EKVX | 0.851 | 0.778 | 0.769 | 0.834 | 0.501 | 0.407 | 0.446 | 0.432 | 0.322 | 0.348 | 0.364 | 0.359 | 0.934 | 0.972 | 1.02 | 0.741 | 0.732 | 0.688 | 0.793 | 0.645
16 | A-427 | 0.807 | 0.739 | 0.77 | 0.732 | 0.797 | 0.639 | 0.852 | 0.697 | 0.757 | 0.75 | 0.821 | 0.684 | 1.03 | 0.907 | 0.914 | 0.77 | 0.807 | 0.722 | 0.838 | 0.703
